Counter-ions that a name gives are not always drawn.

Our source for the IC50 values is ChEMBL document CHEMBL5385921, “Kagimminols A and B, Cembrene-Type Diterpenes from an Okeania sp. Marine Cyanobacterium” (J Nat Prod, 2024).

Test [1] relates to Trypanosoma brucei rhodesiense. The test can be described thus: Antitrypanosomal activity against blood stream form of Trypanosoma brucei rhodesiense IL-1501 assessed as growth inhibition incubated for 69 hrs by alamar blue staining based microplate fluorescence scanner analysis. It is filed as functional, organism-based. The note with it: IL-1501, 69 h. A general note: Alamar Blue is a resazurin reagent that responds to reducing activity.

The test system of the next test is HeLa. The test can be described thus: Antiproliferative activity against human HeLa cells assessed as inhibition of cell growth incubated for 72 hrs by MTT assay. It is filed as functional, cell-based. (Formazan colour is commonly taken as a measure of viable cells.)

By IC50 is commonly meant the concentration at which inhibition is half-maximal. Turning to `CC(=O)O[C@H]1C[C@](C)(O)C(=O)/C=C(\O)[C@](C)(O)CCC/C(C)=C/C=C\1C(C)C`, the figures for the IC50 (in test [1]; with HeLa) were 3.4 µM and more than 30 µM, respectively.
On the same counts, the results for `C/C1=C\C=C(\C(C)C)[C@@H](O)C[C@](C)(O)C(=O)CC/C(C)=C/CC1` are 10 µM and more than 30 µM.
Turning to `COc1cccc2c1C(=O)c1c(O)c3c(c(O)c1C2=O)C[C@@](O)(C(=O)CO)C[C@@H]3O[C@H]1C[C@H](N)[C@H](O)[C@H](C)O1` [DOXORUBICIN HYDROCHLORIDE], the IC50 in the test with HeLa turned out to be 0.5 µM.
